Measured values as given in PMC6071731 (2018).

Columns and labels:
[1] = tested on: 22AG (DNA, G4) AGGGTTAGGGTTAGGGTTAGGG; test: fluorimetric titration; conditions: 95 mM K+; potassium phosphate buffer, 5% DMSO, pH 7.0; ligand 20 μM; DNA concentration in oligonucleotide
[2] = tested on: 22AG (DNA, G4) AGGGTTAGGGTTAGGGTTAGGG; test: photometric titration; conditions: 95 mM K+; potassium phosphate buffer, 5% DMSO, pH 7.0; ligand 20 μM; DNA concentration in oligonucleotide

Compound | Kb [1] [M⁻¹] | Kb [2] [M⁻¹]
C(#Cc1cc2ccccc2c2ccccc12)c1ccc2c[n+]3ccccc3cc2c1 | 30000 | 
C(#Cc1ccc2c[n+]3ccccc3cc2c1)c1ccccc1 | 220000 | 
CN(C)c1ccc(C#Cc2ccc3c[n+]4ccccc4cc3c2)cc1 |  | 16000
COc1ccc(C#Cc2ccc3c[n+]4ccccc4cc3c2)cc1 |  | 26000
